Source: publication PMC4864350, “Fluorogenic Substrates for In Situ Monitoring of Caspase-3 Activity in Live Cells” (PLoS ONE, 2016)
*: point of attachment. MethylRed = CN(C)c1ccc(/N=N/c2ccccc2C(=O)*)cc1; FAM = 5(6)-carboxyfluorescein; peptoid = not defined here; Ahx = NCCCCCC(=O)O

Key:
caspase-7 = biological target: T1, caspase-7 (Homo sapiens, UniProt P55210); test: Caspase-7-mediated cleavage at high enzyme concentration analysed by MALDI-TOF MS; assay type: biochemical; settings: 10–20 μM substrate, 0.4 μM enzyme, 2 h, 37 °C
T1 construct: purchased R&D systems, USA
T1 sequence (P55210 24-198 limits assumed): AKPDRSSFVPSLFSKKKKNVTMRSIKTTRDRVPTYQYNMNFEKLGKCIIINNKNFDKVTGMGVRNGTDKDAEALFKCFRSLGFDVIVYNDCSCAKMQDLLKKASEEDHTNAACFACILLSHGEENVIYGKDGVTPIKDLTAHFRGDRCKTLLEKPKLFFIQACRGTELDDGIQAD
T1 sequence (P55210 207-303 limits assumed): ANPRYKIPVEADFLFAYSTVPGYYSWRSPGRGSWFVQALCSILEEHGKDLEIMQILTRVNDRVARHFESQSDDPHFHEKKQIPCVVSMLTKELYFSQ
Method: To confirm how specific 11, 12 and 14 were for caspase-3, these substrates were incubated with high enzyme concentrations (10–20 μM substrate, 0.4 μM enzyme) and the caspase-mediated cleavage analysed by MALDI-TOF MS.
S2 Fig. (A) MALDI-TOF MS spectra of substrate 11 (sequence Asp-Ala-Pro-Asp). (B) After incubation (20 µM) with Caspase-3 for 2 h. (C) After incubation (20 µM) with Caspase-7 for 2 h (detected as the PBS adduct.)
Caspase-3 or caspase-7 (R&D systems, USA) was added to 100 µL of caspase assay buffer (final enzyme concentration 0.4 µM) with the substrates at 10–20 µM. The samples were incubated in Eppendorf Thermomixer® Comfort shaking at 1200 rpm for 2h at 37 °C. MALDI -TOF mass spectra were recorded as described in Table S1 .
(§1) (1 picture or pasted object on this page, not shown here)

HEK293T cells [1] = test: Flow cytometry detection of caspase-3 activity in live cells; assay type: cell-based; settings: 27 at 10 μM, 5 h
Method: Fig 4 Flow cytometry analysis of healthy and apoptotic HEK293T cells treated with substrate 27. The cells were incubated 5 h with fluorogenic substrate 27 (10 μM), detached, and analysed by flow cytometry (λEx/Em 488/530 nm, x-axis = fluorescence intensity). (A) Healthy, non-apoptotic cells. (B) Apoptotic cells (induced by 1 μM staurosporine). TEXT PRINTED IN THE PICTURE: (A) no label printed: FITC - 92.7%; FITC + 7.28% | (B) no label printed: FITC - 1.57%; FITC + 98.4% […]
Cell culture was performed in a Heracell 150 incubator (Heraeus) and in a Herasafe KS 18 class II negative-flow cabinet (Heraeus). HEK293T and MCF-7 cells (cultured in high glucose (4.5 mg/mL) DMEM supplemented with 4 mM glutamine, 100 units/mL penicillin, 10 mg/mL streptomycin and 25 mg/mL amphotericin B, and 10% FBS) were seeded onto a 48-well plate at a density of 10^4 cells per well. After 12 hours, the media was removed and substrates 1–14 added at 10 μM in fresh media. Selected wells were also treated with staurosporine (1 μM). After 5 hours, the cells were washed twice with PBS, detached with trypsin/EDTA, harvested with 2% FBS in PBS supplemented with Trypan Blue (0.04%) for analysis on a BD FACSAria® flow cytometer. Fluorescence was evaluated as mean fluorescence intensity (MFI) and estimated <100 u.a. for untreated control cells (consistent values independently of staurosporine addition). Apoptotic cells treated with substrate 1 were used as a positive control to obtain the maximum of fluorescence signal. 50,000 events per sample were plotted in two-dimensional dot plots based on forward and side scattering. The cellular size and complexity (SSC-H vs. FSC-H) were used to gate two populations (alive/apoptotic cells) (debri excluded). The data were analysed using the software Flowjo® 7.5.
Quantification of caspase-3 in apoptotic cells by flow cytometry
Localisation of apoptotic cells by flow cytometry. Flow cytometry analysis of morphology (SSC-A) and size (FSC-A) of HEK293T cells without (left image) and with (right image) treatment with 1 µM staurosporine for 4 h.
Calculation of active caspase-3 concentration inside cells
Substrate 27 was used to quantify caspase-3 per cell.1
1. Calculate FAM-Ahx-Leu-Pro-Asp released per cell:
Fluorescein-labelled microspheres (0.5% SC, ≈ 2 mmol/g),2 were used to generate the standard curve for fluorescence intensity versus amount of the fluorophore (nmol) by flow cytometry (see below).
Kossler, S.; Nofziger, C.; Jakab, M.; Dossena, S.; Paulmichl, M. Toxicology, 2012, 292, 123-135.
2 a) A. uncit-Broceta, E.M.V. Johansson, R.M. Yusop, R.M. Sanchez-Martin and M. Bradley, Nat.
Protocol, 2012, 7, 1207-1218. b) J.M. Cardenas-Maestre and R.M. Sanchez-Martin, Org. Biomol. Chem., […]
as §1
FAM standard curve to determine conversion factor (7x109 MFI/nmol) representing FI (Fluorescence Intensity) versus FAM quantity (nmol).
To determine the concentration of FAM-Ahx-Leu-Pro-Asp released per cell (nmol/cell) = [FI/cell – FI0/cell]/7x109 FI/nmol
Assuming 20 µm cell diameter and 2/3 of that for the nucleus, the cytoplasmic volume of HEK293T cell is 3 pl (VC).1,3
FAM-Ahx-Leu-Pro-Asp released per cell (M) = FAM-Ahx-Leu-Pro-Asp released per […]
2. Calculate the rate of product formation V0 with 5 h staurosporine treatment:
V0 = d[P]/dt = FAM-Ahx-Leu-Pro-Asp released per cell (mM)/18000 sec
3. Quantify the concentration of the enzyme per cell at high substrate concentrations (enzyme saturation) […]
kcat = 0.04 s-1 (sensor 27 DLPDK)
[E] = enzyme concentration per cell (nM)
[Caspase-3] = 15.65 ± 0.46 nM (1.3 ng active caspase 3 per 106 apoptotic staurosporine- […]
3 Y. Liu, X. Yan and T. Zhou, PLOS one, 2013, 8, 8.
4. Quantify the number of molecules per cell of caspase-3
NoE (number of enzyme molecules per cell) = [E]xVCxNA […]

HEK293T cells [2] = test: Live-cell confocal imaging of caspase-3 activation; assay type: cell-based; settings: 27 at 10 μM
Method: Fig 5 Confocal microscopy images of HEK293T and MCF-7 cells treated with substrate 27. Confocal microscopy images (objective HCX PL APO ×63/1.40–0.6 Oil CS) of HEK273T cells with substrate 27 (10 μM) without staurosporine (STS) (A) and with staurosporine (1 μM) (B) induced apoptosis (green fluorescence is from fluorescein “turned on” by caspase-3 cleavage of the substrate, blue is DAPI nuclear stain). (C) Staurosporine treated MCF-7 cells with substrate 27.
Cell culture was performed in a Heracell 150 incubator (Heraeus) and in a Herasafe KS 18 class II negative-flow cabinet (Heraeus). […] Fluorescence was evaluated as mean fluorescence intensity (MFI) and estimated <100 u.a. for untreated control cells (consistent values independently of staurosporine addition). Apoptotic cells treated with substrate 1 were used as a positive control to obtain the maximum of fluorescence signal. […] The data were analysed using the software Flowjo® 7.5.
For confocal microscopy, the cells were fixed with 4% paraformaldehyde in PBS and the nuclei stained with Hoechst-33342 (1% w/v in PBS). Cellular fluorescence of cells was analysed using an Inverted Leica DM IRB with filter I3 (450–490 nm) and a Leica SP5 Confocal (FITC and DAPI channel).

[3] = apoptosis induced by 1 μM staurosporine (Fig 4B)

- cleavage by caspase-7 (MALDI-TOF MS) (caspase-7): did not show any cleavage
Substance: substrate 27: FAM-Ahx-Asp-Leu-Pro-Asp-Lys(MR)-Ahx, conjugated to the cell penetrating peptoid at the C-terminus ({FAM-Ahx}-DLPDK(MethylRed)-{Ahx-peptoid}; reading uncertain; also: printed as FAM-Ahx-Asp-Leu-Pro-Asp-Lys(MR)-Ahx)
- FITC + cells, apoptotic (HEK293T cells [1]; [3]): 98.4%
- FITC - cells, apoptotic (HEK293T cells [1]; [3]): 1.57%
- increase in fluorescence without staurosporine (HEK293T cells [1]; no staurosporine, flow cytometry): no increase observed
- FITC + cells, healthy (HEK293T cells [1]; non-apoptotic cells (Fig 4A)): 7.28%
- FITC - cells, healthy (HEK293T cells [1]; non-apoptotic cells (Fig 4A)): 92.7%
- increase in the fluorescence intensity of the cells after apoptotic stimulation (HEK293T cells [1]; staurosporine 1 μM, flow cytometry λEx/Em 488/530 nm): 2.5 fold
- fluorescence turn-on in apoptotic cells (confocal) (HEK293T cells [2]; staurosporine 1 μM): only detected in the cytoplasm of apoptotic HEK293T cells
- fluorescence in non-apoptotic cells (confocal) (HEK293T cells [2]; without staurosporine): no increase in fluorescence observed
